O=C1C=CC(=O)N1c1cc(F)c(Br)c(F)c1
Conditions | solubility (mole fraction)
in 1,4-dioxane, 287.65 K | 0.0122
in 1,4-dioxane, 290.65 K | 0.0133
in 1,4-dioxane, 293.85 K | 0.0146
in 1,4-dioxane, 297.15 K | 0.016
in 1,4-dioxane, 302.05 K | 0.0183
in 1,4-dioxane, 306.25 K | 0.0206
in 1,4-dioxane, 310.05 K | 0.023
in 1,4-dioxane, 317.15 K | 0.0281
in 1,4-dioxane, 321.65 K | 0.0318
in 1,4-dioxane, 324.45 K | 0.0342
in 1,4-dioxane, 330.85 K | 0.0408
in 1,4-dioxane, 335.35 K | 0.0464
in 1,4-dioxane, 339.15 K | 0.0513
in 1,4-dioxane, 342.25 K | 0.0558
in 1,4-dioxane, 347.25 K | 0.0639
in 1,4-dioxane, 353.65 K | 0.0759
in 2-butanone, 289.75 K | 0.0086
in 2-butanone, 299.25 K | 0.0112
in 2-butanone, 303.5 K | 0.0128
in 2-butanone, 308.75 K | 0.0149
in 2-butanone, 313 K | 0.017
in 2-butanone, 316.25 K | 0.0187
in 2-butanone, 318.6 K | 0.0202
in 2-butanone, 321.75 K | 0.022
in 2-butanone, 324.25 K | 0.0237
in 2-butanone, 327.05 K | 0.0257
in 2-butanone, 331.95 K | 0.0296
in 2-butanone, 335.25 K | 0.0326
in 2-butanone, 338.85 K | 0.036
in 2-butanone, 341.55 K | 0.039
in 2-butanone, 343.5 K | 0.0411
in 2-butanone, 345.25 K | 0.0432
in DMF, 289.45 K | 0.0208
in DMF, 293.65 K | 0.0228
in DMF, 300.83 K | 0.0269
in DMF, 305.65 K | 0.0301
in DMF, 308.85 K | 0.0324
in DMF, 317.55 K | 0.0398
in DMF, 320.45 K | 0.0426
in DMF, 322.95 K | 0.0452
in DMF, 325.25 K | 0.0477
in DMF, 333.55 K | 0.0582
in DMF, 337.65 K | 0.0643
in DMF, 342.65 K | 0.0722
in DMF, 346.65 K | 0.0794
in DMF, 350.75 K | 0.0876
in DMF, 353.35 K | 0.0932
in DMF, 356.25 K | 0.1
in DMSO, 289.35 K | 0.0116
in DMSO, 293.65 K | 0.0131
in DMSO, 297.05 K | 0.0143
in DMSO, 301.45 K | 0.0161
in DMSO, 305.95 K | 0.0184
in DMSO, 309.45 K | 0.0202
in DMSO, 314.05 K | 0.0231
in DMSO, 318.15 K | 0.026
in DMSO, 324.55 K | 0.0314
in DMSO, 328.05 K | 0.0348
in DMSO, 333.65 K | 0.0406
in DMSO, 338.85 K | 0.0473
in DMSO, 342.55 K | 0.0527
in DMSO, 346.05 K | 0.058
in DMSO, 349.35 K | 0.0637
in DMSO, 355.95 K | 0.0768
in cyclohexanone, 285.15 K | 0.0129
in cyclohexanone, 291.25 K | 0.0151
in cyclohexanone, 295.15 K | 0.0167
in cyclohexanone, 300.15 K | 0.0191
in cyclohexanone, 305.65 K | 0.0221
in cyclohexanone, 311.65 K | 0.0259
in cyclohexanone, 316.55 K | 0.0295
in cyclohexanone, 321.85 K | 0.0342
in cyclohexanone, 324.95 K | 0.037
in cyclohexanone, 328.75 K | 0.0411
in cyclohexanone, 333.25 K | 0.0462
in cyclohexanone, 337.35 K | 0.0515
in cyclohexanone, 341.35 K | 0.0572
in cyclohexanone, 348.35 K | 0.069
in cyclohexanone, 351.65 K | 0.0751
in cyclohexanone, 355.05 K | 0.0823
in toluene, 291.05 K | 0.0031
in toluene, 296.35 K | 0.0037
in toluene, 299.15 K | 0.0041
in toluene, 302.95 K | 0.0047
in toluene, 306.05 K | 0.0053
in toluene, 310.15 K | 0.0061
in toluene, 315.95 K | 0.0075
in toluene, 321.05 K | 0.0089
in toluene, 325.15 K | 0.0103
in toluene, 330.65 K | 0.0124
in toluene, 334.45 K | 0.014
in toluene, 340.75 K | 0.0175
in toluene, 343.55 K | 0.0192
in toluene, 348.45 K | 0.0226
in toluene, 350.65 K | 0.0244
in toluene, 354.45 K | 0.0276

— BigSolDB 2.1
